Assay [1] has as its target T1, human (h)TLR8 (Homo sapiens, UniProt Q9NR97).
T1 construct: host or cells: HEK-293 reporter cells
T1 sequence (Q9NR97 27-1041): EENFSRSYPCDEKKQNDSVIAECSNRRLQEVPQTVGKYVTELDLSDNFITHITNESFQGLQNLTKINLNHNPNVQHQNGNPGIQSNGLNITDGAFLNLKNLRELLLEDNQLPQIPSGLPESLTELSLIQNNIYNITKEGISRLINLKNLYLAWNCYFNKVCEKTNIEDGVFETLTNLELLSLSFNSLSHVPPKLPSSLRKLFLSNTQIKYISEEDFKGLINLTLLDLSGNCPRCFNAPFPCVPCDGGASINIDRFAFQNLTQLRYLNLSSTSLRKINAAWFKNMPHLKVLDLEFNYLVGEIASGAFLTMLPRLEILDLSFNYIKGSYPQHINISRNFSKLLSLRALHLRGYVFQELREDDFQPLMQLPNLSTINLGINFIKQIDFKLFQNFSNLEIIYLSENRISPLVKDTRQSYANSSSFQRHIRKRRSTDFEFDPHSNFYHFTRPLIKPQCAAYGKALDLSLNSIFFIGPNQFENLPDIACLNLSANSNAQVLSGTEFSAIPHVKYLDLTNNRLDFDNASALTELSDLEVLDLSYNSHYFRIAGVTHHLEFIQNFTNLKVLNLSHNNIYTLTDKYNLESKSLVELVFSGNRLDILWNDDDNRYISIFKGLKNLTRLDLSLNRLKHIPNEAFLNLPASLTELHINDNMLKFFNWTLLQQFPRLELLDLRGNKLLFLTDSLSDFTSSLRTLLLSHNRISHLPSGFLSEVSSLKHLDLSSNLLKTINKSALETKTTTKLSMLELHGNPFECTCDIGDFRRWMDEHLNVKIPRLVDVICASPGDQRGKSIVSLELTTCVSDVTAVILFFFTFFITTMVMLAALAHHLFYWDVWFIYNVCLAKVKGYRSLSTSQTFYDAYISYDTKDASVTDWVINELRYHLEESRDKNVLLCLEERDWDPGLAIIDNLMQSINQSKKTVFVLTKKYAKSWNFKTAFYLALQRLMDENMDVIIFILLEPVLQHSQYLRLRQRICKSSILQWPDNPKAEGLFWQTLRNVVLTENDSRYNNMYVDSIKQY
In words: PRR ligand screening (InvivoGen) in reporter cell lines. The class given is cell-based. As to conditions: HEK reporter cells; % activity vs positive control. Here is the method:
(§1) FIGS. 3A-3E. PVP-179 is a TLR8 agonist. FIG. 3A: PVP-179 was sent to InvivoGen for PRR ligand screening service. Various cells lines were utilized to screen for PVP-179-induced ([…]) activation of TLRs, NOD1/2, RIG-I/MDA-5, Dectin-1 or Mincle receptor. The heat-map depicts percentage activity compared to the positive control for each receptor. FIG. 3B: PVP-179 induced activity (% activity compared to the positive control: CL075 at 1 μg/mL) in HEK-293 cells specifically expressing hTLR8. In brief, these cells have an NF-κB/AP-1-inducible secreted embryonic alkaline phosphatase (SEAP) reporter gene which allows monitoring of signaling via TLR8. After incubation for 16-24 hours, supernatant harvested from the cells is mixed with media containing SEAP-substrate and the optical density (OD) is measured at 650 nm using a spectrophotometer. FIG. 3C: As in FIG. 3B, HEK cells specifically expressing hTLR2, hTLR7, or hTLR8, in addition to the HEK-Null cell line carrying only the reporter gene, were stimulated with the indicated concentrations of PVP-179. […] PVP-179 activity is expressed as a percentage of NF-κB induced in the cells stimulated with TNF (positive control for each cell line). […] The supernatants were harvested after 20-24 hours and SEAP production (to assess NF-κB activity) was measured using QUANTIBlue assay. […]

The subject of assay [2] is Balb/c murine model of SARS-CoV-2 immunization. The class given is in vivo, BALB/c mice. As to conditions: for rSpike immunogenicity: prime Day 0, boost Day 14.
Assay [3] concerns the target T2, hTLR8 (Homo sapiens, UniProt Q9NR97).
T2 construct: host or cells: HEK-293 reporter cells
T2 sequence (Q9NR97 27-1041): T1 sequence (Q9NR97 27-1041)
The experiment in a line: HEK-293 hTLR8 NF-κB/AP-1 SEAP reporter assay. The format is cell-based. The method, then:
as §1

The test system of assay [4] is human adult and elderly PBMCs. In words: TNF ELISA in human adult or elderly PBMCs, 96-well format. As to conditions: stimulated for 24 hours. The format is cell-based. An excerpt:
FIGS. 1A-1D. Discovery of PVP-179 in a human PBMC high-throughput screen. FIG. 1A: A graphical overview depicting screen approach. From a high-throughput screen previously conducted, 310 molecules were identified to be activators of either THP-1 cells (monocyte cell line) or primary human adult peripheral blood mononuclear cells (PBMCs). These 310 molecules were assembled into a stimulation plate and then applied to the PBMCs of 4 elderly donors (cultured with 10% autologous plasma). […] Z scores were averaged across all four elderly donors. The Z score and chemical structure for PVP-179 are indicated. FIG. 1C: Human adult or elderly PBMCs (cultured with 10% autologous plasma) were stimulated with PVP-179 in a two-point concentration titration manner. […] N=4 donors. FIG. 1D: As in FIG. 1C, the supernatants were collected, and 14 cytokines were measured by multiplex assay. […] N=4 donors each.
The activity of PVP-179 was confirmed in a 96-well format in both human adult and elderly PBMCs.
(In an ELISA, binding on a coated surface is turned into a signal by an enzyme label.)

Molecules are shown by their SMILES. Read-outs that look alike come from different tables or passages of the source.

On to `CCCCn1c(/N=C/c2nc3ccccc3n2C)nc2ccccc21` [PVP-179], for which the “activity among all TLRs and other receptors tested” value in assay [1] is “maximal activity toward human (h)TLR8”. For the same compound, the adjuvant activity entry in assay [2] (adult mice) was “adjuvant activity”. In addition, the rSpike immunogenicity result in assay [2] (adult mice (12 weeks)) and in assay [2] (aged mice (52 weeks/12 months old)) was “enhanced rSpike immunogenicity” in each case. Besides, the antibody subtype enhanced result in assay [2] (aged mice) is given as “primarily enhanced the production of anti-rSpike IgG1 subtype antibodies”. The “antibody titers compared to rSpike alone” value in assay [2] (aged mice, Day 28 serum) is 2-5 fold. Also, the “NF-κB activity in HEK cells expressing hTLR8” value in assay [3] (20-24 hours) is on record as “concentration-dependent activity”. In addition, the “activity in HEK-hTLR8 cells after TLR8 inhibitor CUCPT-9a” value in assay [3] (CUCPT-9a 1 μM, PVP-179 at 33 μM or above) is “significantly blocked”. Moreover, the “production of TNF” value in assay [4] (adult PBMCs) and in assay [4] (elderly PBMCs) was “concentration-dependent production of TNF” in each case.

The values are drawn from patent publication US20250041278A1, “TLR8 AGONIST FOR MODULATING IMMUNE RESPONSE” (The Children's Medical Center Corporation, priority 2021, published 2025).
